From patent publication US5593970A, “Heterocyclic anthracycline analogs” (priority 1994, dated 1997) come the findings set out here.

Each structure is given as a SMILES string. pIC50: −log10 of the molar value. Where a name gives a salt, the structure may show the parent alone.

The test system of assay [1] is LS180. Kind of assay: Soft agar colony formation disk diffusion assay. Type of assay: cell-based, human. An outline of the steps:
(§1)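 Cells were suspended at 10^4 to 2×10^5 per dish in 0.4% Noble agar in RPMI-1066 over a 0.8% agar/Tryptic Soy Broth bottom layer. Compound in DMSO/water was dried onto a 6.5 mm paper disk placed on the upper layer. Read-out was the zone of inhibition from disk edge to nearest colonies (>50 cells), measured by ocular micrometer.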
In general terms: A growth-free zone around the sample is the usual read-out of agar diffusion tests.

The subject of assay [2] is MCF7/ADR. Nature of the assay: Soft agar colony formation disk diffusion assay. The class given is cell-based, human. The procedure, abridged:
as §1

Assay [3] relates to MCF7. Nature of the assay: Soft agar colony formation disk diffusion assay. The class given is cell-based, human. The procedure, abridged: as §1
Assay [4] deals with B16. Nature of the assay: Soft agar colony formation disk diffusion assay. The class given is cell-based, murine. The procedure, abridged: (§2)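 Read-out: zone of inhibition, disk edge to most proximal colony (>50 cells), measured by ocular micrometer at 40×. Two-layer agar, 10^4 to 2×10^5 cells per dish, drug on filter disk, 37° C., 5% CO2, 10-20 days.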
Assay [5] relates to LL. Nature of the assay: Soft agar colony formation disk diffusion assay. Type of assay: cell-based, murine. The procedure, abridged: as §2
The test system of assay [6] is M5076. Nature of the assay: Soft agar colony formation disk diffusion assay. Type of assay: cell-based, murine. An outline of the steps: as §2
Assay [7] has as its system P388/ADR. Kind of assay: Soft agar colony formation disk diffusion assay. Type of assay: cell-based, murine. The procedure, abridged:
as §2

Assay [8] deals with P388. Kind of assay: Soft agar colony formation disk diffusion assay. The class given is cell-based, murine. An outline of the steps: as §2
Assay [9] relates to LOX. Kind of assay: Microculture tetrazolium assay. Type of assay: cell-based. The note with it: read-out: IC50.

Usually pIC50 stands for the IC50 on a negative log10 scale, so that one unit is a factor of ten. For the molecule `CCOC(=O)[C@@H]1CC2=C(C(=O)c3cc4ccccc4c(OC(C)=O)c3C2=O)[C@@H](O)O1` (mixture of isomers) [BCH-660, (1S,3S) and (1R,3R)-Ethyl-[6-acetoxy-1-hydroxy-5,12-dioxo-3,4,5,12-tetrahydroanthraceno (2,3-c)pyran-3-yl]formate], the zone of inhibition was determined as 15.0 ± 4.2 Zone Units in assay [1] (10 μg/DISK); 76.0 ± 4.2 Zone Units in [1] (100 μg/DISK); 9.1 ± 4.3 Zone Units in assay [2] (10 μg/DISK); 109.8 ± 10.0 Zone Units in assay [2] (100 μg/DISK); 27.4 ± 4.3 Zone Units in assay [3] (10 μg/DISK); 82.3 ± 12.9 Zone Units in assay [3] (100 μg/DISK). Also, the zone of inhibition in assay [4] (10 μg/DISK) came to 6.1 ± 8.6 Zone Units; in assay [4] (100 μg/DISK), 85.4 ± 8.6 Zone Units; in assay [5] (100 μg/DISK), 55.0 ± 8.4 Zone Units; in assay [6] (10 μg/DISK), 24.4 ± 8.6 Zone Units; in assay [6] (100 μg/DISK), 61.0 ± 0.0 Zone Units; in assay [7] (10 μg/DISK), 6.1 ± 8.6 Zone Units. Besides, the zone of inhibition in assay [7] (100 μg/DISK) is given as 54.9 ± 8.6 Zone Units; in assay [8] (10 μg/DISK), 18.3 ± 8.6 Zone Units; in assay [8] (100 μg/DISK), 54.9 ± 0.0 Zone Units. The pIC50 in [9] was 5.01.

Turning to `COC(=O)[C@H]1CC2=C(C(=O)c3c(c(OC)c4ccccc4c3O)C2=O)[C@H](O[C@H]2C[C@H](NC(=O)C(F)(F)F)[C@H](O)[C@H](C)O2)O1` (mixture of isomers) [BCH-675, (1'S,1S,3R) and 1'S,1R,3S) Methyl(11-hydroxy-6-methoxy-1-[2',3',6'-trideoxy-3-trifluoroacetamido-4'-hydroxy-L-lyxohexopyranose]-5,12-dioxo-3,4,5,12-tetrahydroanthra-ceno[2,3-c]pyran-3-yl) formate], the zone of inhibition in [1] (10 μg/DISK) was 0 Zone Units; in [1] (100 μg/DISK), 148.4 ± 31.3 Zone Units; in assay [2] (10 μg/DISK), 0 Zone Units; in assay [2] (100 μg/DISK) it was 26.3 ± 14.0 Zone Units; in assay [3] (10 μg/DISK) it was 0 Zone Units; in [3] (100 μg/DISK), 30.5 ± 10.5 Zone Units. The zone of inhibition in assay [4] (10 μg/DISK) stood at 0 Zone Units; in assay [4] (100 μg/DISK) it was 0 Zone Units; in assay [5] (10 μg/DISK), 75.2 ± 40.5 Zone Units; in [5] (100 μg/DISK), 264.0 ± 38.0 Zone Units; in [6] (10 μg/DISK), 0 Zone Units; in [6] (100 μg/DISK), 142.0 ± 35.2 Zone Units. For the same molecule, the zone of inhibition came out at 10.1 ± 9.3 Zone Units in assay [7] (10 μg/DISK), 146.3 ± 32.3 Zone Units in assay [7] (100 μg/DISK), 0 Zone Units in [8] (10 μg/DISK) and 152.5 ± 30.5 Zone Units in [8] (100 μg/DISK). The pIC50 in assay [9] is 5.37.

As for `COC(=O)[C@H]1CC2=C(C(=O)c3c(cc4ccccc4c3O)C2=O)[C@H](O[C@H]2C[C@H](NC(=O)C(F)(F)F)[C@H](O)[C@H](C)O2)O1` (mixture of isomers) [BCH-692, (1'S,1S,3R) and (1'S,1R,3S) Methyl[11-hydroxy-1-(2',3',6'-trideoxy-3'-trifluoroacetamido-4'-hydroxy-L-lyxohexopyranose)-5,12-dioxo-3,4,5,12-tetrahydro-anthraceno[2,3-c]pyran-3-yl]formate], the zone of inhibition in assay [1] (10 μg/DISK) came to 130.0 ± 12.5 Zone Units; in assay [1] (100 μg/DISK), 250.0 ± 8.4 Zone Units; in [2] (10 μg/DISK) it was 122.0 ± 10.0 Zone Units; in assay [2] (100 μg/DISK), 237.9 ± 8.6 Zone Units; in assay [3] (10 μg/DISK) it was 131.0 ± 12.7 Zone Units; in assay [3] (100 μg/DISK), 289.5 ± 22.0 Zone Units. Also, the zone of inhibition in assay [4] (10 μg/DISK) came to 0 Zone Units; in [4] (100 μg/DISK), 200.0 ± 55.0 Zone Units; in assay [5] (10 μg/DISK), 80.5 ± 20.5 Zone Units; in assay [5] (100 μg/DISK), 140.3 ± 40.5 Zone Units; in assay [6] (10 μg/DISK), 50.0 ± 25.5 Zone Units; in assay [6] (100 μg/DISK), 200.0 ± 100.0 Zone Units. Besides, the zone of inhibition amounted to 25.0 ± 10.0 Zone Units in assay [7] (10 μg/DISK), 150.5 ± 50.0 Zone Units in assay [7] (100 μg/DISK), 50.5 ± 10.9 Zone Units in assay [8] (10 μg/DISK) and 180.0 ± 50.6 Zone Units in assay [8] (100 μg/DISK). For the same molecule, the “cross resistance with adriamycin, MCF7/ADR vs MCF7” value in [2] is “lack of cross resistance with adriamycin”. Further, the pIC50 in assay [9] is 5.41.

`CCOC(=O)C1CC2=C(CO1)C(=O)c1c(cc3ccccc3c1O)C2=O` (stereo not drawn) [BCH-651, Ethyl(6 and 11 hydroxy-5,12-dioxo-3,4,5,12-tetrahydro-anthraceno[2,3-c]pyran-3-yl)]formate]: the zone of inhibition in assay [1] (10 μg/DISK) worked out at 0 Zone Units; in assay [1] (100 μg/DISK), 76.2 ± 21.5 Zone Units; in assay [2] (10 μg/DISK), 10.0 ± 5.0 Zone Units; in assay [2] (100 μg/DISK), 131.1 ± 30.1 Zone Units; in assay [3] (100 μg/DISK), 115.9 ± 8.6 Zone Units; in [4] (10 μg/DISK), 0 Zone Units. Besides, the zone of inhibition in assay [4] (100 μg/DISK) came out at 27.5 ± 13.4 Zone Units; in assay [5] (100 μg/DISK), 27.4 ± 4.3 Zone Units; in assay [6] (10 μg/DISK), 15.2 ± 4.3 Zone Units; in assay [6] (100 μg/DISK), 51.3 ± 43.3 Zone Units; in [7] (10 μg/DISK), 10.0 ± 0.0 Zone Units; in assay [7] (100 μg/DISK), 30.5 ± 8.6 Zone Units. Further, the zone of inhibition in [8] (10 μg/DISK) was found to be 45.7 ± 12.9 Zone Units; in assay [8] (100 μg/DISK) it was 294.5 ± 101.1 Zone Units. For the same molecule, the pIC50 in assay [9] was 4.66.

Take `CCOC(=O)C1CC2=C(CO1)C(=O)c1c(c(O)c3ccccc3c1OC(C)=O)C2=O` (stereo not drawn) [BCH-654, Ethyl[11-acetoxy-6-hydroxy-5,12-dioxo-3,4,5,12-tetrahydroanthraceno(2,3-c)pyran-3-yl]formate]: the zone of inhibition in assay [1] (10 μg/DISK) came out at 24.4 ± 8.6 Zone Units; in [1] (100 μg/DISK), 158.5 ± 9.1 Zone Units; in [2] (10 μg/DISK), 0 Zone Units; in [2] (100 μg/DISK), 155.6 ± 12.7 Zone Units; in [3] (10 μg/DISK) it was 0 Zone Units; in [3] (100 μg/DISK), 115.9 ± 8.6 Zone Units. Further, the zone of inhibition is 0 Zone Units in assay [4] (10 μg/DISK); 137.4 ± 21.8 Zone Units in assay [4] (100 μg/DISK); 0 Zone Units in assay [5] (100 μg/DISK); 0 Zone Units in assay [6] (10 μg/DISK); 0 Zone Units in assay [6] (100 μg/DISK); 0 Zone Units in assay [7] (10 μg/DISK). Also, the zone of inhibition in assay [7] (100 μg/DISK), in [8] (10 μg/DISK) and in assay [8] (100 μg/DISK) was 0 Zone Units each time. The pIC50 in assay [9] was 4.15.

For the molecule `COC(=O)[C@@H]1CC2=C(C(=O)c3c(cc4ccccc4c3O)C2=O)[C@@H](O[C@H]2C[C@H](NC(=O)C(F)(F)F)[C@H](O)[C@H](C)O2)O1` [BCH-691, (1'S,1R,3S)-Methyl-{11-hydroxy-1-(2',3',6'-trideoxy-3'-trifluoroacetamido-4'-hydroxy-L-lyxoheoxpyranose)-5,12-dioxo-3,4,5,12-tetrahydroanthraceno[2,3-c]pyran-3-yl}formate], the zone of inhibition in [1] (10 μg/DISK) was found to be 148.5 ± 4.9 Zone Units; in assay [1] (100 μg/DISK), 287.0 ± 80.3 Zone Units; in [2] (10 μg/DISK) it was 115.5 ± 9.1 Zone Units; in assay [2] (100 μg/DISK), 213.5 ± 43.1 Zone Units; in assay [3] (10 μg/DISK), 186.5 ± 4.9 Zone Units; in assay [3] (100 μg/DISK) it was 417.5 ± 99.7 Zone Units. Also, the zone of inhibition in [4] (10 μg/DISK) is given as 114.0 ± 30.2 Zone Units; in assay [4] (100 μg/DISK), 250.0 ± 58.0 Zone Units; in assay [5] (10 μg/DISK), 50.6 ± 25.5 Zone Units; in assay [5] (100 μg/DISK), 180.0 ± 120.0 Zone Units; in assay [6] (10 μg/DISK) it was 120.0 ± 28.8 Zone Units; in [6] (100 μg/DISK), 220.0 ± 50.8 Zone Units. The zone of inhibition in assay [7] (10 μg/DISK) amounted to 50.0 ± 10.0 Zone Units; in [7] (100 μg/DISK), 98.0 ± 15.0 Zone Units; in assay [8] (10 μg/DISK) it was 100.5 ± 50.0 Zone Units; in [8] (100 μg/DISK), 200.2 ± 50.0 Zone Units. In addition, the negative-log IC50 (pIC50) in assay [9] is 5.86.
